10 compounds from PubChem BioAssay AID1053199 (The Scripps Research Institute Molecular Screening Center, 2014) can be followed below.

Activity calls are given as the source filed them.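 How the source made its calls: active means inhibition at or above 50% when tested at 10 µM; inactive means inhibition below 50% at 10 µM.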

For the test, the target named is Methionine--tRNA ligase, mitochondrial (Homo sapiens) (UniProt Q96GW9). The test is described as follows: human mitochondrial MetRS inhibition, late-stage follow-up, selectivity assay for T. brucei MetRS inhibitor project, biochemical, radioactivity, round 3 (AID 1053199). To be noted: recombinant human mitochondrial MetRS, [3H]Met aminoacylation, stronger effect = higher value.
Chain of Methionine--tRNA ligase, mitochondrial (Homo sapiens) (Q96GW9 whole entry, looked up): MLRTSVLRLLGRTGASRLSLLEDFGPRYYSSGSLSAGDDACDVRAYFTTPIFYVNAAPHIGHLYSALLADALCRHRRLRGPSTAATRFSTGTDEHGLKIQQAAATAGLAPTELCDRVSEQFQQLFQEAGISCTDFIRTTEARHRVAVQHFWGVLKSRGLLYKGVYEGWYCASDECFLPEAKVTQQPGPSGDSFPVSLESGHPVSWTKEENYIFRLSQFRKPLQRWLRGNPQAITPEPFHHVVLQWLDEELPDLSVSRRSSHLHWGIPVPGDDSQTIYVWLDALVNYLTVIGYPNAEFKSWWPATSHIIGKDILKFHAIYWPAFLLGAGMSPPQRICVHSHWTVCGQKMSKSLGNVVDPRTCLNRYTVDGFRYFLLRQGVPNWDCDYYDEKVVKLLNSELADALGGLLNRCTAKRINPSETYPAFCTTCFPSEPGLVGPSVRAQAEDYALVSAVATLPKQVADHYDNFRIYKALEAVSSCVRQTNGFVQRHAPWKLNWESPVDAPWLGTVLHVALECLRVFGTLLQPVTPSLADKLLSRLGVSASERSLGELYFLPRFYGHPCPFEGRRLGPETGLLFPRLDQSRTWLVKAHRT

Broadly, the inhibition is the drop in the measured response relative to a control, in per cent. In the case of `CCN(CC)C(=O)C(=O)c1cn(CC(=O)Nc2cc(Oc3ccccc3F)cc(C(F)(F)F)c2)c2ccccc12`, the inhibition by setting is: (at 10 µM) -4.45% (inactive); (inhibition, at 1 µM) -5.27%.
`CCN(CC)C(=O)C(=O)c1cn(CCNc2cccc(C(F)(F)F)c2)c2ccccc12`: the inhibition reads like this: (at 10 µM) 0.1% (inactive); (inhibition, at 1 µM) -5.12%.
As for `O=C(Cn1cc(C(=O)C(=O)NCc2ccccc2)c2ccccc21)Nc1cc(Oc2ccccc2)cc(C(F)(F)F)c1`, the inhibition is, setting by setting: (at 10 µM) -8.53% (inactive); (inhibition, at 1 µM) -1.57%.
In the same order, the values of `O=C(Cc1ccc(Nc2nc3ccc(Br)cc3[nH]2)cc1)NCCc1cccs1` are 0.91% (inactive) and 5.12%.
Take `CCN(CC)C(=O)Cc1cn(CC(=O)Nc2cccc(C(F)(F)F)c2)c2ccccc12`: the inhibition (at 10 µM) is -11.2% (inactive) and the inhibition (inhibition, at 1 µM) was -8.45%.
In the case of `CCN(CC)C(=O)C(=O)c1cn(CCNc2cc(Oc3ccccc3)cc(C(F)(F)F)c2)c2ccccc12`, the inhibition is, setting by setting: (at 10 µM) 2.68% (inactive); (inhibition, at 1 µM) -2.31%.
`CCN(CC)C(=O)C(=O)c1cn(CC(=O)Nc2cc(Oc3ccc(OC)cc3)cc(C(F)(F)F)c2)c2ccccc12`: the inhibition (at 10 µM) is -1.74% (inactive) and the inhibition (inhibition, at 1 µM) is -4.97%.
For `Nc1c(Cl)ncnc1Nc1ccc(C(=O)O)cc1`, the inhibition is 6.59% (inactive) (at 10 µM) and 2.59% (inhibition, at 1 µM).
For `CCN(CC)C(=O)C(=O)c1cn(CC(=O)Nc2cc(Oc3ccc(F)cc3)cc(C(F)(F)F)c2)c2ccccc12`, the inhibition was 7.56% (inactive) (at 10 µM) and -2.44% (inhibition, at 1 µM).
As for `CCN(CC)C(=O)C(=O)c1cn(CC(=O)Nc2cc(Oc3ccccc3OC)cc(C(F)(F)F)c2)c2ccccc12`, the inhibition is 6.34% (inactive) (at 10 µM) and -6.59% (inhibition, at 1 µM).
